Series [1] is described as follows: hygroscopicity (salt screening). Format: physicochemical.
Series [2] in a line: water solubility (salt screening). Format: physicochemical.

Among the data in US20140024638A1, “TREATMENT OF COGNITIVE DYSFUNCTION IN SCHIZOPHRENIA” (TARGACEPT, INC., priority 2011, published 2014) are hygroscopicity and water solubility values, retold here.

Turning to `O=C(N[C@@H]1C2CCN(CC2)[C@H]1Cc1cccnc1)c1cc2ccccc2o1.O=P(O)(O)O` [phosphoric acid salt], the hygroscopicity entry in series [1] was “low”.

Turning to `Cc1ccc(S(=O)(=O)O)cc1.O=C(N[C@@H]1C2CCN(CC2)[C@H]1Cc1cccnc1)c1cc2ccccc2o1` [p-toluenesulfonic acid salt, (2S,3R)—N-(2-((3-pyridinyl)methyl)-1-azabicyclo[2.2.2]oct-3-yl)benzofuran-2-carboxamide p-toluenesulfonate], the hygroscopicity result in series [1] is recorded as “low”. Moreover, the water solubility result in series [2] is reported as “good”.
